This experiment concerns the target T1, human PD-1 / PD-L1-Ig binding on Jurkat cell line over-expressing human PD-1 (Jurkat-PD-1) (Homo sapiens, UniProt Q15116).
T1 construct: expressed in transfected cells; host or cells: Jurkat
The experiment can be described thus: Jurkat-PD-1 Cell Binding High-Content Screening Assay (CBA). It counts as cell-based. The conditions noted are these: PE-labeled PD-L1-Ig 20 nM final. The essentials:
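Jurkat cells over-expressing human PD-1, in DMEM/10% FCS, pre-incubated with compound 2 h at 37° C. PE-labeled human PD-L1-Ig (20 nM final) added for 1 h; cells fixed in paraformaldehyde with Hoechst 33342 nuclear stain, washed, and bound fluorescence quantified by high-content imaging.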

Setting [1] is: Jurkat-PD-1 cells, read-out: Jurkat HPD1_PDL1 IC50.

Where two headings read alike, the source gives them in different places. Where a SMILES comes first, the peptide text is derived from it. Bridges are numbered along the chain shown (N, C = ends). [ ]: non-standard residue; d: D form. The star is where a group is joined. Phe(4-COOH) = N[C@@H](Cc1ccc(C(=O)O)cc1)C(=O)O; Bip = N[C@@H](Cc1ccc(-c2ccccc2)cc1)C(=O)O; Phe(3-F) = N[C@@H](Cc1cccc(F)c1)C(=O)O; aIle = CC[C@@H](C)[C@H](N)C(=O)O; 4Pal = N[C@@H](Cc1ccncc1)C(=O)O; Cha = N[C@@H](CC1CCCCC1)C(=O)O; dCha = N[C@H](CC1CCCCC1)C(=O)O; Carboxymethyl = O=C(O)C*; Orn = NCCC[C@H](N)C(=O)O; Dab = NCC[C@H](N)C(=O)O; Dap = NC[C@H](N)C(=O)O

As a reminder, the IC50 is the point on the concentration scale where inhibition reaches its midpoint.

T1 sequence (Q15116 25-288): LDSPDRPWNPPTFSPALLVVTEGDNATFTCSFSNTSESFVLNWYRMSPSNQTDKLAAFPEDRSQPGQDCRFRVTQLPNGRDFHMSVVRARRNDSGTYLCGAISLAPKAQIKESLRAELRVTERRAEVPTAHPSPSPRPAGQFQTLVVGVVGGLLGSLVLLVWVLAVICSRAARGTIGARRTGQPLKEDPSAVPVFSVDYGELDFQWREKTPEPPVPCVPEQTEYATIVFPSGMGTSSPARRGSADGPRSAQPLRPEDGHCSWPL

Turning to `CC[C@H](C)[C@@H]1NC(=O)[C@H](Cc2ccc(-c3ccccc3)cc2)NC(=O)[C@H](C(C)C)NC(=O)[C@H](Cc2c[nH]c3ccccc23)NC(=O)[C@H](CC(=O)O)NC(=O)[C@H](Cc2ccc(OCC(=O)O)cc2)NC(=O)[C@H](Cc2ccc(OCC(=O)O)cc2)NC(=O)CSC[C@@H](C(=O)N[C@@H](C)C(N)=O)NC(=O)[C@H]([C@@H](C)O)NC(=O)[C@H](C(C)C)NC(=O)[C@H](Cc2cccc(F)c2)NC(=O)[C@H](CCN)NC(=O)[C@@H](CC(C)C)NC(=O)[C@H](CCCN)NC1=O` [Compound 1671] ({CH2CO}-Y(Carboxymethyl)Y(Carboxymethyl)DWV[Bip]I[Orn][dL][Dab][Phe(3-F)]VTCA-NH2; thioether N-14), the IC50 under setting [1] was found to be 22.9 nM.
Consider `CC[C@H](C)[C@@H]1NC(=O)[C@H](Cc2ccc(-c3ccccc3)cc2)NC(=O)[C@H](C(C)C)NC(=O)[C@H](Cc2cccc(C)c2)NC(=O)[C@H](CC(=O)O)NC(=O)[C@H](Cc2ccc(OCC(=O)O)cc2)NC(=O)[C@H](Cc2ccncc2)NC(=O)CSC[C@@H](C(=O)N[C@@H](C)C(N)=O)NC(=O)[C@H]([C@@H](C)O)NC(=O)[C@H](C(C)C)NC(=O)[C@H](CC(C)C)NC(=O)[C@H](CCN)NC(=O)[C@@H](CC(C)C)NC(=O)[C@H](CCCN)NC1=O` [Compound 1186], for which the IC50 (Jurkat HPD1_PDL1 IC50, Jurkat-PD-1 cells) is 5.8 nM.
For the compound `CC(C)[C@@H]1NC(=O)[C@H](Cc2c[nH]c3ccccc23)NC(=O)[C@H](CC(=O)O)NC(=O)[C@H](Cc2ccc(OCC(=O)O)cc2)NC(=O)[C@H](CN)NC(=O)CSC[C@@H](C(=O)N[C@@H](C)C(N)=O)NC(=O)[C@H]([C@@H](C)O)NC(=O)[C@H](C(C)C)NC(=O)[C@H](CC2CCCCC2)NC(=O)[C@H](CCN)NC(=O)[C@@H](CC2CCCCC2)NC(=O)[C@H](CCCN)NC(=O)[C@H](C(C)C)NC(=O)[C@H](Cc2ccc(-c3ccccc3)cc2)NC1=O` [Compound 1635] ({CH2CO}-[Dap]Y(Carboxymethyl)DWV[Bip]V[Orn][dCha][Dab][Cha]VTCA-NH2; thioether N-14), the IC50 under setting [1] is 18.1 nM.
On the same count and under the same terms, then `CC[C@@H](C)[C@@H]1NC(=O)[C@H](Cc2ccc(-c3ccccc3)cc2)NC(=O)[C@H](C(C)C)NC(=O)[C@H](Cc2c[nH]c3ccccc23)NC(=O)[C@H](CC(=O)O)NC(=O)[C@H](Cc2ccc(C(=O)O)cc2)NC(=O)[C@H](Cc2ccncc2)NC(=O)CSC[C@@H](C(=O)N[C@@H](C)C(N)=O)NC(=O)[C@H]([C@@H](C)O)NC(=O)[C@H](C(C)C)NC(=O)[C@H](CC2CCCCC2)NC(=O)[C@H](CCN)NC(=O)[C@@H](CC2CCCCC2)NC(=O)[C@H](CCCN)NC1=O` [Compound 1624] ({CH2CO}-[4Pal][Phe(4-COOH)]DWV[Bip][aIle][Orn][dCha][Dab][Cha]VTCA-NH2; thioether N-14), with 26.9 nM.
On the same count and under the same terms, as for `Cc1cccc(C[C@@H]2NC(=O)[C@H](CC(=O)O)NC(=O)[C@H](Cc3ccc(OCC(=O)O)cc3)NC(=O)[C@H](CN)NC(=O)CSC[C@@H](C(=O)N[C@@H](C)C(N)=O)NC(=O)[C@H]([C@@H](C)O)NC(=O)[C@H](C(C)C)NC(=O)[C@H](CC3CCCCC3)NC(=O)[C@H](CCN)NC(=O)[C@@H](CC(C)C)NC(=O)[C@H](CCCN)NC(=O)[C@H](C(C)C)NC(=O)[C@H](Cc3ccc(-c4ccccc4)cc3)NC(=O)[C@H](C(C)C)NC2=O)c1` [Compound 1212], the figure is 6 nM; as for `CC(C)C[C@@H]1NC(=O)[C@H](CCN)NC(=O)[C@@H](CC(C)C)NC(=O)[C@H](CCCN)NC(=O)[C@H](CCCNC(=N)N)NC(=O)[C@H](Cc2ccc(-c3ccccc3)cc2)NC(=O)[C@H](C(C)C)NC(=O)[C@H](Cc2c[nH]c3ccccc23)NC(=O)[C@H](CC(=O)O)NC(=O)[C@H](Cc2ccncc2)NC(=O)[C@H](CN)NC(=O)CSC[C@@H](C(=O)N[C@@H](C)C(N)=O)NC(=O)[C@H]([C@@H](C)O)NC(=O)[C@H](C(C)C)NC1=O` [Compound 1244] ({CH2CO}-[Dap][4Pal]DWV[Bip]R[Orn][dL][Dab]LVTCA-NH2; thioether N-14), 22.3 nM.

The values are drawn from patent US20250163104A1, “MACROCYCLIC IMMUNOMODULATORS” (priority 2021, published 2025).
